Patent US8748117B2, “Probe for detection and quantification of nitric oxide, and method for detecting and quantifying nitric oxide using the same” (Japan Science and Technology Agency, priority 2004, dated 2014)
Entries after “also recorded” stand apart in the source; their conditions may differ.

Experiments:
[1] = system: CHO-K1 cells expressing NOA-1; test: CFP/YFP emission ratio of NOA-1 in CHO-K1 cells upon NOC-7 / NO stimulation; type: cell-based
Description: cDNAs respectively expressing the hybrid proteins were constructed. The hybrid proteins respectively comprise cGMP-visualization probe (hereinafter described as CGY) connected with C-terminus of sGCα or sGCβ through the linker of SEC ID NO.1 (GGEQKLISEEDLLESR). The CYG was prepared according to the method in Patent documents 1 and 2. The heterodimmer of the hybrid proteins was named as “NOA-1” (fluorescent indicator for NO with a signal amplifier) (FIGS. 2A and B). At N-terminus of NOA-1, FLAG tag of SEC ID NO.2 (MDYKDDDDK) may be attached.
(§1) Two cDNAs were introduced into CHO K1 cells having little amount of endogenous sGC thereby coexpressing both sGCα-CGY and sGCβ-CGY in the cells.
In the same manner as in Example 1, both sGCα-CGY and sGCβ-CGY were coexpressed in CHO-K1 cells.
In the same manner as in Example 1, the CHO-K1 cells coexpressed with both sGCα and sGCβ were stimulated with various amount of NOC-7 to measure the changes of CFP/YFP emission ratio dependent to NO concentrations (FIG. 6).
In the same manner as in Example 1, the CHO-K1 cells expressing NOA-1 were stimulated with various amount of NOC-7 to measure the changes of CFP/YFP emission ratio by NO and 8-Br-cGMP stimulations (FIGS. 7A and 7B).
The NO-dependent FRET response of NOA-1 was confirmed by using NO solutions prepared by bubbling NO gas. […] Importantly, NOA-1 senses not only an increase in the NO concentration but also its removal by oxidation and/or volatilization. This NO-dependent reversible response of NOA-1 is caused by the reversible binding of NO to the heme group in NOA-1 and endogenous phosphodiesterases that immediately hydrolyze the generated cGMP molecules after the removal of NO.

[2] = system: CHO-K1 cells expressed with sGCα-CGY or sGCβ-CGY; test: CFP/YFP emission ratio in CHO-K1 cells expressing sGCα-CGY or sGCβ-CGY alone; type: cell-based; settings: subsequent addition of 2 mM 8-Br-cGMP after 50 nM NOC-7
[3] = system: CHO-K1 cells expressed with NOA-1; test: Selectivity of NOA-1 FRET response (CO, natriuretic peptide, cAMP generation); type: cell-based; settings: for CFP/YFP emission ratio of NOA-1: excess concentration, several cultured cell types including CHO-K1 cells
Excerpt: As to the selectivity of NOA-1, the FRET response of NOA-1 for carbon monoxide (CO) was examined.
CO is a sGC activator but has a lower affinity with sGC than NO. In addition, the CO-bound sGC is known to have much lower cyclase activity than NO-bound sGC because of each different coordination to the heme iron. Physiologically generated CO thus appears not to affect the response of NOA-1.
Effect of natriuretic peptide stimulation or cAMP generation on the FRET response of NOA-1 was examined.

[4] = system: nitric oxide synthase (NOS); test: NOS inhibitor effect on NOA-1 emission ratio in CHO-K1 cells; type: cell-based; settings: 1 mM L-NAME
Description: (§2) (1) NOA-1 was expressed in endothelial cells from bovine pulmonary artery cultured in a serum-supplemented media. […] This is based on difference of basal NO concentration between CHO-K1 cell and vascular endothelial cell. (3) Endothelial cells and CHO-K1 cells were pretreated with an inhibitor for nitric oxide synthase (NOS), 1 mM L-NAME and the CFP/YFP emission ratio of NOA-1 was observed.

[5] = molecular target: T1, nitric oxide synthase (NOS) (Bos taurus, UniProt P29473); test: NOS inhibitor effect on NOA-1 emission ratio in endothelial cells; type: cell-based, bovine; settings: 1 mM L-NAME
T1 construct: endogenous in cells; host or cells: bovine pulmonary artery endothelial cells
T1 sequence (P29473 2-1205 limits assumed): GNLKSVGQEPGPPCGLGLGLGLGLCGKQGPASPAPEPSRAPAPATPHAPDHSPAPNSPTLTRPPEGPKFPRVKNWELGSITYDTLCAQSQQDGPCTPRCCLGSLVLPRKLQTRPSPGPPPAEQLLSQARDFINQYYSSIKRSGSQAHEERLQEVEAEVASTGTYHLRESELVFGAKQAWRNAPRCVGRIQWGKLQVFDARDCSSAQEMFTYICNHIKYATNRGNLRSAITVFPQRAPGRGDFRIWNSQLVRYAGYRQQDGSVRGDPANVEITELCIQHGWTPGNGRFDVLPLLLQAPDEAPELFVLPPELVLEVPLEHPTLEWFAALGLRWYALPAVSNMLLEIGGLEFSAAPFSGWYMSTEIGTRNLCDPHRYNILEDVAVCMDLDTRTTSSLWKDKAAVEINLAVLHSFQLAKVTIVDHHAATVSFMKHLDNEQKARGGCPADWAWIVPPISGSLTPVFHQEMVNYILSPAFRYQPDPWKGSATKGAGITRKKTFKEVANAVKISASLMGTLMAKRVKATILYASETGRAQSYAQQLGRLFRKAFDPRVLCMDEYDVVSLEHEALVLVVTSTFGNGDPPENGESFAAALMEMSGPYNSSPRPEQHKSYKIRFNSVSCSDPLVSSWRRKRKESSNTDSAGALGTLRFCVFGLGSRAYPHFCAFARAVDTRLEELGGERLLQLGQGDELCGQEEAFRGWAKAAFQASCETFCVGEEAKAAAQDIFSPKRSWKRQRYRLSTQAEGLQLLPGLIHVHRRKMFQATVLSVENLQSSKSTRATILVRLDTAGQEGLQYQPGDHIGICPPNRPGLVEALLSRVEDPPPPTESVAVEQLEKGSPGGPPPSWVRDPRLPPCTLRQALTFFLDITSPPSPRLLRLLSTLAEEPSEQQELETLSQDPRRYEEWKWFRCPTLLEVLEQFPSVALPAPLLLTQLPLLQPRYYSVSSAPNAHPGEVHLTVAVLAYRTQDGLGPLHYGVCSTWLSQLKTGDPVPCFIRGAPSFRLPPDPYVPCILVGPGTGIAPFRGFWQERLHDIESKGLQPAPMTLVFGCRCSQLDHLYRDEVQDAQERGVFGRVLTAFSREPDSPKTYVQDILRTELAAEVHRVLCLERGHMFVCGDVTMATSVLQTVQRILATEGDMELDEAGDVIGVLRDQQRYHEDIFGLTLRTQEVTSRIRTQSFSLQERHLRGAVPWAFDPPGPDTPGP
Description: as §2

[6] = system: phosphatidyl inositol 3-kinase (PI(3)K); test: PI(3)K inhibitor effect on basal NO (NOA-1 emission ratio) in endothelial cells; type: cell-based, bovine
Description: The stable generation of the basal NO concentration was examined in vascular endothelial cells cultured in a serum-containing medium.
That is, the endothelial cells expressing NOA-1 was added with 100 μM LY 294002), and the CFP/YFP emission ratio was monitored for the NO concentrations in the cells.

[7] = system: endothelial cells from bovine pulmonary artery; test: NOA-1 CFP/YFP emission ratio in vascular endothelial cells; type: cell-based
Description: as §2
(4) The response of NOA-1 for excess NOC-7 between the endothelial and CHO-K1 cells was compared.
We stimulated the endothelial and CHO-K1 cells with 10 μM NOC-7, which generates enough concentration of NO to immediately saturate the NOA-1 response. […] As a result, in endothelial cells, the obtained change in the emission ratio upon the excess NOC-7 stimulation was actually only one-third of that in CHO-K1 cells (FIG. 13B).
(§3) (6) The basal concentration of NO in each vascular endothelial cell was measured. We first inhibited endogenous eNOS with 1 mM L-NAME to remove the basal NO and cGMP generated by the basal NO. The CFP/YFP emission ratios before and after the inhibition of endogenous eNOS, respectively, represent the basal and zero concentrations of NO in each endothelial cell (FIG. 15). To quantitate the basal concentration of NO, we subsequently added various concentrations of NO to each endothelial cell, in which eNOS activity was inhibited with L-NAME. The peak response of NOA-1 was plotted at each concentration of NO. Based on the obtained dose-response of NOA-1 for various concentrations of NO, we measured 1 nM of the basal NO concentration generated in each endothelial cell.

[8] = system: sGC; test: Block of the NOC-7 response of NOA-1 by sGC inhibitor pretreatment in CHO-K1 cells; type: cell-based; settings: cells pretreated with NS 2028 (100 μM, FIG. 3-b)
Excerpt: as §1

[9] = system: phosphodiesterases; test: PDE inhibitor effect on NOA-1 emission ratio in endothelial cells; type: cell-based, bovine; settings: 200 μM zaprinast; endothelial cells expressing NOA-1
[10] = system: phosphodiesterases (PDE); test: Effect of PDE inhibitor on NOA-1 emission ratio in CHO-K1 cells; type: cell-based
Description: as §1
The latter recovery of the decreased emission ratio disappeared when the cells were pretreated with an inhibitor of phosphodiesterases (PDE) that hydrolyses cGMP, zaprinast (FIG. 3-c).
as §3

## Nc1nc2c(nc(Br)n2[C@@H]2O[C@@H]3COP(=O)(O)O[C@H]3[C@H]2O)c(=O)[nH]1 [8-Br-cGMP]
[1]; addition of 2 mM 8-Br-cGMP after 100 nM NOC-7
  plateau response of CFP/YFP emission ratio: did not further decrease
[2]
  CFP/YFP emission ratio: quick decrease

## [C-]#[O+] [CO, carbon monoxide]
[3]; 100 μM CO
  response of NOA-1 compared with that for 5 nM NO: transient but much smaller response
[3]; CO up to 10 μM
  CFP/YFP emission ratio: no significant change

## COC(=O)[C@@H](N)CCCNC(=N)N[N+](=O)[O-] [L-NAME]
[4]
  CFP/YFP emission ratio of NOA-1: no significant change
[5]
  CFP/YFP emission ratio of NOA-1: gradually increased

## O=c1cc(N2CCOCC2)oc2c(-c3ccccc3)cccc12 [LY 294002, 2-(4-morpholinyl)-8-phenyl-1(4H)-benzopyran-4-one]
[6]; 100 μM LY 294002
  time to reach plateau of the emission ratio: ≤ 25 min
[6]; 100 μM LY 294002, endothelial cells expressing NOA-1
  emission ratio: significantly increased
[6]; endothelial cells, serum-containing medium
  effect on basal NO: removed the basal NO concentration; also recorded: inhibitory effect on basal NO generation

## CNCCCNN(N=O)C(C)CO (stereo not drawn) [NOC-7, 3-(2-hydroxy-1-methylethyl-2-nitrosohydrazino)-N-methyl-1-propanamine]
[7]; 10 μM NOC-7
  change in the emission ratio upon excess NOC-7 in endothelial cells relative to CHO-K1 cells: one-third
[7]; 10 μM NOC-7, endothelial and CHO-K1 cells
  emission ratios: immediately decreased
[1]; 1 nM or 5 nM NOC-7
  CFP/YFP emission ratio: dose-dependent transient response; also recorded: NO-dependent transient change
[1]; 10 nM NOC-7
  CFP/YFP emission ratio: reaches a plateau and then slowly recovered to the initial level; also recorded: quick decrease
[1]; 50 nM or 100 nM NOC-7
  CFP/YFP emission ratio: did not show no recovery to the initial level even after 20 minutes
[1]; 100 nM NOC-7, after reaching the plateau
  CFP/YFP emission ratio: did not subsequently show significant recovery for at least 10 min
[1]; second 5 nM NOC-7 stimulation after recovery to the initial value
  CFP/YFP emission ratio response on repeated stimulation: same transient response
[1]; stimulated with 5 nM NOC-7, CHO-K1 coexpressing sGCα-CGY and sGCβ-CGY
  CFP/YFP emission ratio: immediately decreased but gradually recovered up to the initial level

## O=c1onc2n1-c1cc(Br)ccc1OC2 [NS 2028]
[8]
  transient change in the emission ratio by 5 nM NOC-7: completely blocked

## CC[C@H](C)[C@@H]1NC(=O)[C@H](CCCNC(=N)N)NC(=O)[C@H](CC(=O)O)NC(=O)[C@H](CCSC)NC(=O)[C@H](CCCNC(=N)N)NC(=O)CNC(=O)CNC(=O)[C@H](Cc2ccccc2)NC(=O)[C@@H](NC(=O)[C@H](CO)NC(=O)[C@H](CO)NC(=O)[C@H](CCCNC(=N)N)NC(=O)[C@H](CCCNC(=N)N)NC(=O)[C@H](CC(C)C)NC(=O)[C@@H](N)CO)CSSC[C@@H](C(=O)N[C@@H](CC(N)=O)C(=O)N[C@@H](CO)C(=O)N[C@@H](Cc2ccccc2)C(=O)N[C@@H](CCCNC(=N)N)C(=O)N[C@@H](Cc2ccc(O)cc2)C(=O)O)NC(=O)CNC(=O)[C@H](CC(C)C)NC(=O)CNC(=O)[C@H](CO)NC(=O)[C@H](CCC(N)=O)NC(=O)[C@H](C)NC(=O)CNC1=O [atrial natriuretic peptide]
[3]
  CFP/YFP emission ratio of NOA-1: no significant change

## CC(C)NCC(O)c1ccc(O)c(O)c1 (stereo not drawn) [isoproterenol]
[3]
  CFP/YFP emission ratio of NOA-1: no significant change

## CCCOc1ccccc1-c1nc2nn[nH]c2c(=O)[nH]1 [zaprinast]
[9]
  CFP/YFP emission ratio: gradually decreased and reached the saturation of NOA-1 response
[10]; cells pretreated with zaprinast (200 μM, FIG. 3-c)
  latter recovery of the decreased emission ratio after 5 nM NOC-7: disappeared
[10]; treatment with zaprinast, NOA-1 in CHO-K1
  emission ratio: no significant change

## insulin: stimulation activates the PI(3)K-Akt pathway
[7]; insulin stimulation
  NO concentration in the endothelial cells: further increases the NO concentration
